Data taken from patent publication US9867861B2, “Process for the large scale production of fruit cells and treatment of diseases with such cells” (priority 2012, dated 2018).

Key:
[1] = Solubility assay of resveratrol sources in water; assay type: physicochemical; conditions: acidified water (pH=2) as well as pH 7.0
[2] = system: carrageenan induced rat paw edema; conditions: resveratrol 50 mg/kg body weight before carrageenan; Gentilli et al (2001); cited from earlier work
[3] = system: carrageenan induced rat paw edema; experiment: Carrageenan induced rat paw edema, paw volume measurements; assay type: in vivo; conditions: indomethacin 2 mg/kg 2 h before carrageenan; vs vehicle control
Text: The aim of the present study was to evaluate the in vivo anti-inflammatory activity of RGC (Red Grape Cells) made according to the large scale process of the invention in an acute inflammation model in rats so as to verify the efficiency of the cells produced according to the invention. One of the experimental model most widely used to study acute inflammation in rodents is that based on the intraplantar administration of carrageenan. The study assessed the efficacy of the RGC by two methods: • 1. Paw volume measurements • 2. […] The rats in all groups were injected with 1% carrageenan (0.1 mg/paw) or sterile saline (0.9% NaCl) into the sub plantar tissue of left hind paw of each rat. • The Following Tests were Performed: • Paw Volumes Measurements • Carrageenan injected paw volumes were measured hourly just before carrageenan injection 0 and 1, 2, 4 hours after injection using caliper. • The paw dimensions were measured in two axes and paw volume was calculated. Paw edema volume in this model was an indication of the inflammation severity. • For each time point, the change in paw volume was calculated either by subtracting the baseline paw volume or as % of baseline paw volume. […]

[4] = system: carrageenan-induced hind paw inflammation (hyperalgesia); experiment: Hot plate method, inflammatory nociception in freely moving rats after carrageenan; assay type: in vivo, rat; conditions: indomethacin 2 mg/kg, vs vehicle control
Procedure: The study assessed the efficacy of the RGC by two methods: • 1. Paw volume measurements • 2. Inflammatory nociception in freely moving rats Materials and Methods: Red Grape Cells (RGC) prepared according to example 1. • RGC was administered orally at dose of 400 mg/kg body weight (2 ml/40 mg) as a suspension in sterile drinking water, 2 h before carrageenan injection. • RGC Composition: […] Rats were divided into three groups of eight rats in each group. The rats in all groups were injected with 1% carrageenan (0.1 mg/paw) or sterile saline (0.9% NaCl) into the sub plantar tissue of left hind paw of each rat. • The Following Tests were Performed: • Paw Volumes Measurements • Carrageenan injected paw volumes were measured hourly just before carrageenan injection 0 and 1, 2, 4 hours after injection using caliper. • The paw dimensions were measured in two axes and paw volume was calculated. Paw edema volume in this model was an indication of the inflammation severity. • For each time point, the change in paw volume was calculated either by subtracting the baseline paw volume or as % of baseline paw volume. Hot Plate Method for Measuring Inflammatory Nociception in Freely Moving Rats The hot plate method was used to determine inflammatory nociception in freely moving rates. […]

| Compound | Dissolution of RES in water, percentage compared to dissolution in 80% methanol [1] [%] | Paw edema [2] | Paw edema (volume %) [3] | Hot plate latency, % from baseline [4] | Hot plate latency delta, baseline-actual time ([4]; 2 and 4 h) |
| --- | --- | --- | --- | --- | --- |
| Oc1ccc(/C=C/c2cc(O)cc(O)c2)cc1 [Synthetic-RES, trans-3,5,4′-trihydroxystilbene] | 7 | failed to reduce paw edema | – | – | – |
| COc1ccc2c(c1)c(CC(=O)O)c(C)n2C(=O)c1ccc(Cl)cc1 [indomethacin] | – | – | statistically significant difference at 2 and 4 h | statistically significant difference at 2 and 4 h | significant decrease in the latency delta |
